pIC50: −log10 of the molar value. Values belong to the compound of their own block, whether it stands above or below them. Calls of active or inactive are those of the source. The calls are words filed in the database; no cut-off is given here.
Key:
[1] = tested on: BaF3; experiment: cells; settings: Mus musculus, BaF3, 72 h
[2] = tested on: HCT-116; experiment: cells; settings: Homo sapiens
[3] = tested on: BaF3; experiment: cells; settings: Mus musculus, BaF3, 72 h; remark: listed apart in the source
[4] = tested on: HT-29; experiment: cells; settings: Homo sapiens
[5] = tested on: MKN-45; experiment: cells; settings: Homo sapiens
[6] = tested on: LoVo; experiment: cells; settings: Homo sapiens
[7] = tested on: COLO 205; experiment: cells; settings: Homo sapiens
[8] = Cytotoxicity against human FHC cells assessed as cell growth inhibition by MTT assay; type: toxicity, cell-based
[9] = Metabolic stability in human liver microsomes assessed as intrinsic clearance at 1 uM measured upto 45 mins in presence of NADPH by LC-MS/MS analysis; type: ADME, Microsome; settings: read-out: CLH
[10] = tested on: EBC-1; experiment: cells; settings: Homo sapiens
[11] = tested on: SNU-5; experiment: cells; settings: Homo sapiens
[12] = Metabolic stability in human liver microsomes assessed as half life at 1 uM measured upto 45 mins in presence of NADPH by LC-MS/MS analysis; type: ADME, Microsome
[13] = cells; settings: Homo sapiens, TT
[14] = Metabolic stability in human liver microsomes assessed as parent compound remaining at 1 uM measured after 45 mins in presence of NADPH by LC-MS/MS analysis; type: ADME, Microsome; settings: read-out: Stability
[15] = target: Hepatocyte growth factor receptor (Homo sapiens, UniProt P08581); experiment: Inhibition of c-Met (unknown origin)
Hepatocyte growth factor receptor, sequence (P08581 whole entry): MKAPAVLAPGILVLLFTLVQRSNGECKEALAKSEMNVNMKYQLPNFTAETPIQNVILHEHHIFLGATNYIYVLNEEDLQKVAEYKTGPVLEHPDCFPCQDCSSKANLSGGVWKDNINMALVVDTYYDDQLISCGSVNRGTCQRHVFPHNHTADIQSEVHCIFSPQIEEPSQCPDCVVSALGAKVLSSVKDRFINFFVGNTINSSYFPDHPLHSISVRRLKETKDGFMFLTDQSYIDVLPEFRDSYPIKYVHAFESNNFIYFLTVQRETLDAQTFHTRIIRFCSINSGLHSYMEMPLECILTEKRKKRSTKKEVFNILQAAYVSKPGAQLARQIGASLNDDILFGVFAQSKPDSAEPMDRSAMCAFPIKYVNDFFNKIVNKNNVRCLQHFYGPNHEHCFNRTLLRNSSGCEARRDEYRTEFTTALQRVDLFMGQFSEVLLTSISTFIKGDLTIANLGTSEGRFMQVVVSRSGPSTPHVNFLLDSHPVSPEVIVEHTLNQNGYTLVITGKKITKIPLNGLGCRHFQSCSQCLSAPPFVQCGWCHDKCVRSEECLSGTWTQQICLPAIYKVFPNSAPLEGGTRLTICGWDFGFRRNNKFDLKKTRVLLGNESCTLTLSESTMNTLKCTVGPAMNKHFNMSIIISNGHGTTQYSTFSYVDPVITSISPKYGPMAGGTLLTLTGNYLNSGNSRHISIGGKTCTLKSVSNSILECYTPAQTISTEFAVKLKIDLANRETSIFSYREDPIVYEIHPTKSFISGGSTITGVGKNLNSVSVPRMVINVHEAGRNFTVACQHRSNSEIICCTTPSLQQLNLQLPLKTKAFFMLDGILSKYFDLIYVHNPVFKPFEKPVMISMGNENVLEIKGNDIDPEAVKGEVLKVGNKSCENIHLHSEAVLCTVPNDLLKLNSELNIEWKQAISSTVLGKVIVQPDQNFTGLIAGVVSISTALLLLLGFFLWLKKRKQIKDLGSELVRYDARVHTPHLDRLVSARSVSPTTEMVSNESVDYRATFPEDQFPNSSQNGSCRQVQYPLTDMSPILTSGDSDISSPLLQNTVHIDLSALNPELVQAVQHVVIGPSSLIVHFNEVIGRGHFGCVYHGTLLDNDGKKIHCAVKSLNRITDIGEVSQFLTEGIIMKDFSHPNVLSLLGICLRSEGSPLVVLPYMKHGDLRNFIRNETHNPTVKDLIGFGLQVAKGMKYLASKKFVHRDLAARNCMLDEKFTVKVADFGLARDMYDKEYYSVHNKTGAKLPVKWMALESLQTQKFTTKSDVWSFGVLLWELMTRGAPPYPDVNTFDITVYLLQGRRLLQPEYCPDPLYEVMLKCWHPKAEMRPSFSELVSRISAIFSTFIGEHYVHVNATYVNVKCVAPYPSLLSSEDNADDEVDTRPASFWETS

[16] = tested on: COLO 205; experiment: Induction of apoptosis in human COLO 205 cells assessed as necrotic cells at 1 uM incubated for 72 hrs by Annexin FITC-A staining based flow cytometry (reference value: 9.65 %); type: functional
[17] = tested on: COLO 205; experiment: Induction of apoptosis in human COLO 205 cells assessed as late apoptotic cells at […] incubated for 72 hrs by Annexin FITC-A staining based flow cytometry (reference value: 9.15 %); type: functional; settings: dose 0.11 µM
[18] = tested on: COLO 205; experiment: Induction of apoptosis in human COLO 205 cells assessed as late apoptotic cells at 0.33 uM incubated for 72 hrs by Annexin FITC-A staining based flow cytometry (reference value: 9.15 %); type: functional
[19] = tested on: COLO 205; experiment: Induction of apoptosis in human COLO 205 cells assessed as late apoptotic cells at 1 uM incubated for 72 hrs by Annexin FITC-A staining based flow cytometry (reference value: 9.15 %); type: functional
[20] = tested on: COLO 205; experiment: Induction of apoptosis in human COLO 205 cells assessed as necrotic cells at 0.33 uM incubated for 72 hrs by Annexin FITC-A staining based flow cytometry (reference value: 9.65 %); type: functional
[21] = tested on: COLO 205; experiment: Induction of apoptosis in human COLO 205 cells assessed as necrotic cells at 0.037 uM incubated for 72 hrs by Annexin FITC-A staining based flow cytometry (reference value: 9.65 %); type: functional
[22] = tested on: COLO 205; experiment: Induction of apoptosis in human COLO 205 cells assessed as viable cells at 0.33 uM incubated for 72 hrs by Annexin FITC-A staining based flow cytometry (reference value: 78.7 %); type: functional; settings: read-out: Activity
[23] = tested on: COLO 205; experiment: Induction of cell cycle arrest in human COLO 205 cells assessed as accumulation at S phase at 0.037 uM incubated for 24 hrs by flow cytometry (reference value: 40.8 %); type: functional
[24] = tested on: COLO 205; experiment: Induction of apoptosis in human COLO 205 cells assessed as viable cells at […] incubated for 72 hrs by Annexin FITC-A staining based flow cytometry (reference value: 78.7 %); type: functional; settings: dose 0.11 µM, read-out: Activity
[25] = tested on: COLO 205; experiment: Induction of apoptosis in human COLO 205 cells assessed as viable cells at 1 uM incubated for 72 hrs by Annexin FITC-A staining based flow cytometry (reference value: 78.7 %); type: functional; settings: read-out: Activity
[26] = tested on: COLO 205; experiment: Induction of apoptosis in human COLO 205 cells assessed as early apoptotic cells at 0.33 uM incubated for 72 hrs by Annexin FITC-A staining based flow cytometry (reference value: 2.54 %); type: functional
[27] = tested on: COLO 205; experiment: Induction of apoptosis in human COLO 205 cells assessed as early apoptotic cells at […] incubated for 72 hrs by Annexin FITC-A staining based flow cytometry (reference value: 2.54 %); type: functional; settings: dose 0.11 µM
[28] = tested on: COLO 205; experiment: Induction of cell cycle arrest in human COLO 205 cells assessed as accumulation at G1 phase at 0.037 uM incubated for 24 hrs by flow cytometry (reference value: 47.9 %); type: functional
[29] = tested on: COLO 205; experiment: Induction of apoptosis in human COLO 205 cells assessed as early apoptotic cells at 0.037 uM incubated for 72 hrs by Annexin FITC-A staining based flow cytometry (reference value: 2.54 %); type: functional
[30] = tested on: COLO 205; experiment: Induction of apoptosis in human COLO 205 cells assessed as early apoptotic cells at 1 uM incubated for 72 hrs by Annexin FITC-A staining based flow cytometry (reference value: 2.54 %); type: functional
[31] = tested on: COLO 205; experiment: Induction of apoptosis in human COLO 205 cells assessed as viable cells at 0.037 uM incubated for 72 hrs by Annexin FITC-A staining based flow cytometry (reference value: 78.7 %); type: functional; settings: read-out: Activity
[32] = tested on: COLO 205; experiment: Induction of apoptosis in human COLO 205 cells assessed as necrotic cells at […] incubated for 72 hrs by Annexin FITC-A staining based flow cytometry (reference value: 9.65 %); type: functional; settings: dose 0.11 µM
[33] = tested on: COLO 205; experiment: Induction of apoptosis in human COLO 205 cells assessed as late apoptotic cells at 0.037 uM incubated for 72 hrs by Annexin FITC-A staining based flow cytometry (reference value: 9.15 %); type: functional
[34] = tested on: COLO 205; experiment: Induction of cell cycle arrest in human COLO 205 cells assessed as accumulation at G2 phase at 0.037 uM incubated for 24 hrs by flow cytometry (reference value: 6.8 %); type: functional
[35] = tested on: COLO 205; experiment: Induction of cell death in human COLO 205 cells at 0.11 to 1 uM incubated for 24 hrs by flow cytometry; type: functional, cell-based; settings: dose 0.11-1 µM
[36] = tested on: NCI-H1993; experiment: cells; settings: Homo sapiens

Structure (SMILES): CCN(CC)CCCOc1cc2nccc(Oc3ccc(NC(=O)NN4C(=O)CSC4c4c(F)cccc4F)cc3OC)c2cc1OC (stereo unspecified)
pIC50 [1]: 6.96
pIC50 [2]: 6.70
pIC50 [3]: 6.80
pIC50 [4]: 6.17

Structure (SMILES): COc1cc2nccc(Oc3c(F)cc(NC(=O)NN4C(=O)CSC4c4c(F)cccc4F)cc3F)c2cc1OC (stereo unspecified)
pIC50 [1]: 6.77
pIC50 [2]: < 5.00
pIC50 [3]: 6.19
pIC50 [4]: 5.39

Structure (SMILES): O=C(Nc1ccc(Oc2ccnc3c2CCN3)c(F)c1)c1c[nH]cc(-c2ccc(F)cc2)c1=O
pIC50 [15]: 8.22

Structure (SMILES): CCN1CCN(CCCOc2cc3nccc(Oc4c(F)cc(NC(=O)NN5C(=O)CS[C@H]5c5ccc(F)cc5F)cc4F)c3cc2OC)CC1
Activity [16]: 13.9%
Activity [17]: 47.9%
Activity [18]: 54.4%
Activity [19]: 64.7%
Activity [20]: 25%
Activity [21]: 5.23%
pIC50 [7]: 7.38
viability at 0.33 µM [22]: 15.4%
Activity [23]: 38.3%
pIC50 [8]: < 5.00
viability at […] [24]: 23.1%
viability at 1 µM [25]: 14%
Activity [26]: 5.19%
Activity [27]: 6.29%
Activity [28]: 51.4%
Activity [29]: 6.59%
Activity [30]: 7.41%
half-life at 1 µM [12]: 2.83 h
viability at 0.037 µM [31]: 63.4%
Activity [32]: 22.7%
Activity [33]: 24.8%
Activity [34]: 6.2%
Activity [35]: Active

Structure (SMILES): CCN(CC)CCCOc1cc2nccc(Oc3c(F)cc(NC(=O)NN4C(=O)CSC4c4c(F)cccc4F)cc3F)c2cc1OC (stereo unspecified)
pIC50 [1]: 7.03
pIC50 [2]: 6.36
pIC50 [3]: 6.66
pIC50 [4]: 6.85
pIC50 [8]: 5.42

Structure (SMILES): CCN1CCN(CCCOc2cc3nccc(Oc4c(F)cc(NC(=O)NN5C(=O)CSC5c5ccccc5F)cc4F)c3cc2OC)CC1 (stereo unspecified)
pIC50 [1]: 7.28
pIC50 [5]: 5.64
pIC50 [6]: 5.89
pIC50 [2]: 6.85
pIC50 [3]: 7.06
pIC50 [7]: 7.20
pIC50 [4]: 6.96
pIC50 [8]: < 5.00
CLint scaled at 1 µM [9]: 13.3 mL/min/kg
pIC50 [10]: 6.64
pIC50 [11]: 6.06
half-life at 1 µM [12]: 2.17 h
remaining at 0.75 h, 1 µM [14]: 78.2%
pIC50 [36]: 5.64

Structure (SMILES): CCN(CC)CCCOc1cc2nccc(Nc3ccc(NC(=O)NN4C(=O)CSC4c4c(F)cccc4F)cc3)c2cc1OC (stereo unspecified)
pIC50 [1]: 5.68
pIC50 [2]: < 5.00
pIC50 [3]: 5.35
pIC50 [4]: 5.26

Structure (SMILES): CNC(=O)c1cc(Oc2ccc(NC(=O)Nc3ccc(Cl)c(C(F)(F)F)c3)c(F)c2)ccn1 [REGORAFENIB]
pIC50 [2]: 5.46
pIC50 [4]: 5.07

The next lines start with results.

pIC50 [1]: 6.48
pIC50 [2]: 5.49
pIC50 [3]: 6.03
pIC50 [4]: 6.17
Structure (SMILES): CCN(CC)CCCOc1cc2nccc(Oc3ccc(C(=O)NN4C(=O)CSC4c4c(F)cccc4F)cc3)c2cc1OC (stereo unspecified)

pIC50 [1]: 7.35
pIC50 [5]: 6.21
pIC50 [6]: 6.03
pIC50 [2]: 6.27
pIC50 [3]: 7.12
pIC50 [7]: 7.32
pIC50 [4]: 7.16
CLint scaled at 1 µM [9]: 19.8 mL/min/kg
pIC50 [10]: 6.80
pIC50 [11]: 6.57
half-life at 1 µM [12]: 1.47 h
pIC50 [13]: 5.64
remaining at 0.75 h, 1 µM [14]: 70.1%
Structure (SMILES): CCN1CCN(CCCOc2cc3nccc(Oc4c(F)cc(NC(=O)NN5C(=O)CSC5c5c(F)cccc5F)cc4F)c3cc2OC)CC1 (stereo unspecified)
pIC50 [8]: < 5.00

pIC50 [1]: 5.48
pIC50 [3]: < 5.00
Structure (SMILES): CCN(CC)CCCOc1cc2nc(N)cc(Oc3ccc(NC(=O)NN4C(=O)CSC4c4c(F)cccc4F)cc3)c2cc1OC (stereo unspecified)

pIC50 [1]: 7.23
pIC50 [2]: 6.96
pIC50 [3]: 6.89
pIC50 [4]: 6.66
Structure (SMILES): CCN1CCN(CCCOc2cc3nccc(Oc4ccc(NC(=O)NN5C(=O)CSC5c5c(F)cccc5F)cc4)c3cc2OC)CC1 (stereo unspecified)
